pKd: −log10 of the molar value. Where two headings read alike, the source gives them in different places.
Key:
[1] = molecular target: T1, Polymorphum gilvum pgLacBP10, YP_004304976.1, SEQ ID NO: 10 (expressed form SEQ ID NO: 24) (Polymorphum gilvum, UniProt F2IY60); experiment: Lactate binding by thermal stability shift; design: key to appKd (lactate) / trueKd (lactate): nb: no binding
T1 sequence (F2IY60 with tags, fused parts or gaps): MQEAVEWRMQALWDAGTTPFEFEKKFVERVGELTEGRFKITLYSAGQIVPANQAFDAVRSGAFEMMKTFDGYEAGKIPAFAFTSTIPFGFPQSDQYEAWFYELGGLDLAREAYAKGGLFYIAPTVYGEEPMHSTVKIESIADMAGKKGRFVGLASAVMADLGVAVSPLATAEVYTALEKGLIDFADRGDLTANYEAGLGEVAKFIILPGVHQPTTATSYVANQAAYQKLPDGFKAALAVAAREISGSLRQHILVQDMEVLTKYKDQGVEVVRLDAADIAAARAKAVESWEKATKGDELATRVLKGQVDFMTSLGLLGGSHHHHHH
Excerpt: These experiments comprise four successive steps: • 1. Synthetic gene construction. The amino acid sequence of the homology leads are back translated into DNA sequences. These are optimized for directing heterologous cytoplasmic expression of the protein homologues in E. coli, using either the OrfOpt or OrfMorph programs. These programs predict mRNA sequences that direct high-level protein expression in E. coli. The predicted gene sequences are assembled de novo from synthetic oligonucleotides. • 2. Heterologous protein expression of the homologues in E. coli. Plasmids carrying the synthetic expression constructs (see above) were transformed into KRX competent cells (Promega). Protein production was induced in bacterial cultures of these cultures. • 3. Purification of successfully expressed protein using immobilized metal affinity chromatography. • 4.
The thermal stability of purified LacBP candidate proteins was determined by measuring the temperature-dependence of the fluorescence signal of an extrinsically added dye, SYPRO, using a Roche LightCycler (Layton and Hellinga, 2010, Biochemistry, 49, 10831-41). The total fluorescence intensity, S, is given by S=βFfF+βUfU 11 where fF and fU are the fractions of protein in the folded and unfolded states, respectively, and βF and βUthe fluorescence baselines of these two states. To get the fractions of the two states, we have
To obtain the temperature dependence of the binding reaction, the Kd values of all the individually determined isotherms were fit the Gibbs-Hemholtz equation (Layton and Hellinga, 2010, Biochemistry, 49, 10831-41): […]

[2] = molecular target: T2, Flexistipes sinusarabici fsLacBP13 variant W188C, SEQ ID NO: 47, Badan conjugate (Flexistipes sinusarabici, UniProt F8E724, W211C); experiment: Fluorescence titration of conjugate; format: binding
T2 construct: Badan on Cys188

[3] = molecular target: Marinobacter sp. msLacBP6 variant 187C, D220E, SEQ ID NO: 56, Acrylodan conjugate; experiment: Fluorescence titration of conjugate (affinity tuning); format: binding; settings: λ1 483, λ2 510 nm
[4] = molecular target: Marinobacter sp. msLacBP6 variant 187C, F68L, SEQ ID NO: 49, Acrylodan conjugate; experiment: as above; format: binding; settings: λ1 459, λ2 516 nm
[5] = molecular target: Marinobacter sp. msLacBP6 variant W11C, Acrylodan conjugate; experiment: Fluorescence titration of conjugate; format: binding; settings: λ1 473, λ2 520 nm
[6] = molecular target: Marinobacter sp. msLacBP6 variant 187C, F68M, SEQ ID NO: 50, Badan conjugate; experiment: Fluorescence titration of conjugate (affinity tuning); format: binding; settings: λ1 464, λ2 527 nm
[7] = molecular target: Marinobacter sp. msLacBP6 variant 187C, L70I, SEQ ID NO: 52, Badan conjugate; experiment: as above; format: binding; settings: λ1 460, λ2 537 nm
[8] = molecular target: Marinobacter sp. msLacBP6 variant 187C, F68M, SEQ ID NO: 50, Acrylodan conjugate; experiment: as above; format: binding; settings: λ1 459, λ2 516 nm
[9] = tested on: Anaeromyxobacter dehalogenans adLacBP9 variant F191C, SEQ ID NO: 44, Badan conjugate; experiment: Fluorescence titration of conjugate; format: binding; design: key: nb: no binding
Procedure: (§1) 12-, 24-, or 48-point logarithmic titration series were prepared on a Tecan Freedom liquid-handling robot, using an in-house program, ‘TitrationPlate’, that compiles an abstract description of a multi-component titration series into machine instructions for operating the robot. Temperature-dependent fluorescence emission intensities of 20 μL aliquots, each containing 10 μM protein, were measured in 384-well microtiter plates in a LightCycler 480 II (Roche) using excitation and emission wavelengths available for this instrument that most closely matched the optical characteristics of the fluorescent conjugate. Temperatures were advanced in 1K steps. At each temperature, data was collected at 1-second intervals for 60 seconds at which point the signal had relaxed to a steady value associated with the new temperature. […] The in-house program ‘TitrationMeltPlate’ was used to convert these observations into time-independent datasets that record fluorescence as a function of temperature for each well and associate wells with their concentration of titrant and additive. Management tools were developed to maintain a database of titrations and their analyses.
(§2) Ligand- and wavelength-dependent emission intensities were recorded on a Nanodrop3300 (Thermo Scientific) at room temperature. Using the LED closest to the optimal excitation wavelength of the fluorophore (UV, 365 nm; blue, 470 nm; ‘white’, 460-550 nm).
(§3) Monochromatic emission intensities Iλ (these intensities correspond to a bandpass intensity, recorded either with a physical filter in the case of the Roche LightCycler, or by integrating in the interval λ−δ, λ+δ in the case of an emission spectrum), were fit to Iλ=^apoβλ(1−ytrue)+^satβλytrue 1 where ^apoβλ and ^satβλ are the fluorescence baselines associated with the ligand-free and ligand-bound states of the protein, respectively, and ytrue the fractional saturation of the protein (Layton and Hellinga, 2010, Biochemistry, 49, 10831-41). Baseline functions can be constant, linear, or a second-order polynomial.

[10] = tested on: Anaeromyxobacter dehalogenans adLacBP9 variant F191C, SEQ ID NO: 44, Acrylodan conjugate; experiment: Fluorescence titration of conjugate; format: binding; design: key: nb: no binding
Procedure: as §1, §2, §3

[11] = Roche LightCycler, SYPRO Orange

T2 sequence (F8E724 entry or part of it W211C): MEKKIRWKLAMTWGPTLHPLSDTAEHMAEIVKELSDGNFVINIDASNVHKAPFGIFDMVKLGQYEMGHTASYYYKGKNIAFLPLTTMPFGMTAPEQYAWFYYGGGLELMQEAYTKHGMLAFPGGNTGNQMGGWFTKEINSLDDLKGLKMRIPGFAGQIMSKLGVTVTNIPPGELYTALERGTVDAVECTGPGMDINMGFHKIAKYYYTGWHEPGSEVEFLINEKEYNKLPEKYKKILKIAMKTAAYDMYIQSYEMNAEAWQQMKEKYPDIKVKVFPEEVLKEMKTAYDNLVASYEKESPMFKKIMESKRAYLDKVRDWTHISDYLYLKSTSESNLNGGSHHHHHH

C[C@H](O)C(=O)O [lactate]
appKd (lactate) [1, 11]: nb^f | trueKd (lactate) [1, 11]: nb^f | Lactate Binding ([1]; thermostability vs ligand concentration, fluorescence response of labeled conjugate): weak^f,g | pKd [2]: < 1.00 | pKd ([2]; read-out: trueKd (lactate), λ1 483, λ2 466 nm): < 1.00 | pKd ([3]; read-out: appKd (lactate)): 2.29 | pKd ([3]; read-out: trueKd (lactate)): 2.40 | pKd ([4]; read-out: appKd (lactate)): 3.22 | pKd ([4]; read-out: trueKd (lactate)): 3.30 | pKd ([5]; read-out: appKd (lactate)): 3.40 | pKd ([5]; read-out: trueKd (lactate)): 3.40 | pKd ([6]; read-out: appKd (lactate)): 3.30 | pKd ([6]; read-out: trueKd (lactate)): 3.22 | pKd ([7]; read-out: appKd (lactate)): 3.52 | pKd ([7]; read-out: trueKd (lactate)): 3.70 | pKd ([8]; read-out: appKd (lactate)): 3.15 | pKd ([8]; read-out: trueKd (lactate)): 3.30 | appKd (lactate) [9]: nb | trueKd (lactate) [9]: nb | appKd (lactate) [10]: nb | trueKd (lactate) [10]: nb

Source: US11099176B2 (priority 2015, dated 2021)
